Results: US20220402882A1, “HERBICIDAL COMPOUNDS” (SYNGENTA CROP PROTECTION AG, priority 2019, published 2022)

Tests used:
SETFA = assay: Comparative experiment, POST application; type: in vivo, Setaria faberi
Experimental: (§1) A comparative experiment is conducted to show the advantage provided by the compounds of the present invention. Thus the biological performance of representative compounds […] Compound 4-460 of the type referred to in WO2012/028579. Results are given as (%) phytotoxicity observed.

[1] = tested on: Ipomoea hederacea (IPOHE); assay: Pre-emergence glasshouse herbicide test; type: in vivo; settings: 125 g/h, evaluated after 13 days
Summary of the method: (§2)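 Plants grown in standard soil in pots in a glasshouse (24/16 °C day/night, 14 h light, 65% humidity) were sprayed 1 day after sowing (pre-emergence) or after 8 days (post-emergence) at 125 g/h unless otherwise indicated. Percentage damage was assessed after 13 days and scored on a five-point scale (5=80-100%, 1=0-19%).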

[2] = tested on: Abutilon theophrasti (ABUTH); assay: Pre-emergence glasshouse herbicide test; type: in vivo; settings: 125 g/h, evaluated after 13 days
Summary of the method: as §2

[3] = tested on: Amaranthus retoflexus (AMARE); assay: Pre-emergence glasshouse herbicide test; type: in vivo; settings: 125 g/h, evaluated after 13 days
Summary of the method: as §2

Setaria faberi (SETFA) [4] = assay: Pre-emergence glasshouse herbicide test; type: in vivo; settings: 125 g/h, evaluated after 13 days
Summary of the method: as §2

[5] = tested on: Echinochloa crus-galli (ECHCG); assay: Pre-emergence glasshouse herbicide test; type: in vivo; settings: 125 g/h, evaluated after 13 days
Summary of the method: as §2

AMARE = assay: Comparative experiment, POST application; type: in vivo, Amaranthus retoflexus
Experimental: as §1

ABUTH = assay: Comparative experiment, POST application; type: in vivo, Abutilon theophrasti
Experimental: as §1

ECHCG = assay: Comparative experiment, POST application; type: in vivo, Echinochloa crus-galli
Experimental: as §1

DIGSA = assay: Comparative experiment, POST application; type: in vivo
Experimental: as §1

ZEAMX/maize = assay: Comparative experiment, POST application; type: in vivo; settings: crop
Experimental: as §1

IPOHE = assay: Comparative experiment, POST application; type: in vivo, Ipomoea hederacea
Experimental: as §1

[6] = tested on: Ipomoea hederacea (IPOHE); assay: Post-emergence glasshouse herbicide test; type: in vivo; settings: 125 g/h, evaluated after 13 days
Summary of the method: as §2

[7] = tested on: Abutilon theophrasti (ABUTH); assay: Post-emergence glasshouse herbicide test; type: in vivo; settings: 125 g/h, evaluated after 13 days
Summary of the method: as §2

[8] = tested on: Amaranthus retoflexus (AMARE); assay: Post-emergence glasshouse herbicide test; type: in vivo; settings: 125 g/h, evaluated after 13 days
Summary of the method: as §2

Setaria faberi (SETFA) [9] = assay: Post-emergence glasshouse herbicide test; type: in vivo; settings: 125 g/h, evaluated after 13 days
Summary of the method: as §2

[10] = tested on: Echinochloa crus-galli (ECHCG); assay: Post-emergence glasshouse herbicide test; type: in vivo; settings: 125 g/h, evaluated after 13 days
Summary of the method: as §2

Compound | (%) phytotoxicity observed, SETFA (SETFA; rate 15 g/ha) | (%) phytotoxicity observed, SETFA (SETFA; rate 30 g/ha) | percentage damage caused to the plant, IPOHE [1] | percentage damage caused to the plant, ABUTH [2] | percentage damage caused to the plant, AMARE [3] | percentage damage caused to the plant, SETFA (Setaria faberi (SETFA) [4]) | percentage damage caused to the plant, ECHCG [5] | (%) phytotoxicity observed, AMARE (AMARE; rate 15 g/ha) | (%) phytotoxicity observed, AMARE (AMARE; rate 30 g/ha) | (%) phytotoxicity observed, ABUTH (ABUTH; rate 15 g/ha) | (%) phytotoxicity observed, ABUTH (ABUTH; rate 30 g/ha) | (%) phytotoxicity observed, ECHCG (ECHCG; rate 15 g/ha) | (%) phytotoxicity observed, ECHCG (ECHCG; rate 30 g/ha) | (%) phytotoxicity observed, DIGSA (DIGSA; rate 15 g/ha) | (%) phytotoxicity observed, DIGSA (DIGSA; rate 30 g/ha) | percentage damage caused to the plant, IPOHE [6] | percentage damage caused to the plant, ABUTH [7] | percentage damage caused to the plant, AMARE [8] | percentage damage caused to the plant, SETFA (Setaria faberi (SETFA) [9]) | percentage damage caused to the plant, ECHCG [10] | other results
Cn1nnnc1NC(=O)c1ccc(OC(F)F)c(S(C)(=O)=O)c1Cl [Compound 1.003, 2-chloro-4-(difluoromethoxy)-3-methylsulfonyl-N-(1-methyltetrazol-5-yl)benzamide] | 80% | 90% | 1 (1=0-19%) | 5 (5=80-100%) | 5 (5=80-100%) | 5 (5=80-100%) | 5 (5=80-100%) | 100% | 100% | 90% | 100% | 90% | 90% | 80% | 80% | 5 (5=80-100%) | 5 (5=80-100%) | 5 (5=80-100%) | 5 (5=80-100%) | 5 (5=80-100%) | (%) phytotoxicity observed, ZEAMX (ZEAMX/maize; rate 15 g/ha): 0%; (%) phytotoxicity observed, ZEAMX (ZEAMX/maize; rate 30 g/ha): 0%; (%) phytotoxicity observed, IPOHE (IPOHE; rate 15 g/ha): 100%; (%) phytotoxicity observed, IPOHE (IPOHE; rate 30 g/ha): 100%
CCS(=O)(=O)c1c(OC(F)F)ccc(C(=O)Nc2nnc(C)o2)c1C [Compound 2.014] | – | – | 5 (5=80-100%) | 5 (5=80-100%) | 5 (5=80-100%) | 5 (5=80-100%) | 5 (5=80-100%) | – | – | – | – | – | – | – | – | 4 (4=60-79%) | 5 (5=80-100%) | 5 (5=80-100%) | 5 (5=80-100%) | 5 (5=80-100%) | –
CCS(=O)(=O)c1c(OCC(F)(F)F)ccc(C(=O)Nc2nnc(C)o2)c1C [Compound 2.018] | – | – | 4 (4=60-79%) | 5 (5=80-100%) | 5 (5=80-100%) | 5 (5=80-100%) | 5 (5=80-100%) | – | – | – | – | – | – | – | – | 5 (5=80-100%) | 5 (5=80-100%) | 5 (5=80-100%) | 5 (5=80-100%) | 5 (5=80-100%) | –
Cn1nnnc1NC(=O)c1ccc(C(F)(F)F)c(S(C)(=O)=O)c1Cl [Compound 4-640, reference compound] | 90% | 90% | – | – | – | – | – | 90% | 90% | 90% | 90% | 80% | 90% | 80% | 80% | – | – | – | – | – | (%) phytotoxicity observed, ZEAMX (ZEAMX/maize; rate 15 g/ha): 40%; (%) phytotoxicity observed, ZEAMX (ZEAMX/maize; rate 30 g/ha): 70%; (%) phytotoxicity observed, IPOHE (IPOHE; rate 15 g/ha): 90%; (%) phytotoxicity observed, IPOHE (IPOHE; rate 30 g/ha): 90%
